Laboratory results published in patent US20110053860A1, “COX-2 function and wound healing” (priority 2001, published 2011).

Columns and labels:
[1] = tested on: rat closed femur fracture model; experiment: Histology of fracture callus; format: in vivo, male Sprague-Dawley rats; details: for histology of the healing femur fractures compared to untreated control rat: 2 weeks post-fracture; for cartilage in the fracture callus: 3 and 4 weeks post-fracture; for healing of fractured femurs by histology: 6 and 8 weeks post-fracture
Procedure: (§1) A total of 253 male Sprague-Dawley rats (584.+−0.62 g) were fed a standard diet and kept caged separately in a constant temperature and humidity environment. All rats were 6-9 months old at the beginning of the experiment. Drugs were administered daily by gavage beginning two days prior to fracture. Animals were randomly selected for each treatment group. […] No drug (control) rats were not initially gavaged but later rats were gavaged with water and no difference was noted between the no drug rats that had been gavaged and those that had not. No statistically significant differences were found in animal weight changes during the experiments.
(§2) The rats were anesthetized by intraperitoneal injection of ketamine (40 mg/kg) and xylazine (5 mg/kg). Under aseptic conditions, a medial parapatellar incision (0.4-0.5 cm) was made in the right hindlimb and the patella was dislocated laterally. The medullary canal was entered through the intercondylar notch and reamed with an 18-gauge needle. A 1.1 mm stainless steel pin (Small Parts Inc., Miami Lakes, Fla.) was then inserted into the canal and secured in the proximal part of the greater trochanter by tamping. The distal portion of the pin was then cut flush with the femoral condyles and the patella dislocation was reduced. The soft tissue and skin were closed with 4-0 vicryl sutures. After closing, the diaphysis of the pinned femur was fractured by means of a three-point bending device as described by Bonnarens and Einhorn (Bonnarens and Einhorn 1984).
Rats were sacrificed at 2, 3, 4, 6, and 8 weeks post-fracture by CO2 asphyxiation. Both femora were resected and the stainless steel pin was removed from the medullary canal. The harvested femora were fixed in 10% buffered formalin and embedded in polymethylmethacrylate following standard histological techniques for calcified tissue. The samples were sectioned sagitally through the fracture callus using an Isomet diamond saw (Buehler Ltd., Lake Bluff, Ill.), mounted on plexiglass slides, and polished to a thickness of 100 μ.m. The slides were then stained with van Gieson's picrofuchsin and Stevenel's blue in order to identify new bone growth and cartilage formation (Maniatopoulos et al. 1986). Mice femora were fixed, decalcified, paraffin embedded, sectioned, and stained with Masson's trichrome stain. The samples were viewed and photomicrographs were taken using an Olympus BH2-RFCA microscope or an Olympus SZ40 microscope.

[2] = tested on: rat closed femur fracture model; experiment: Torsional mechanical testing of fractured femurs; format: in vivo, male Sprague-Dawley rats; details: for normalized maximum shear stress / normalized torsional rigidity / normalized peak torque / normalized shear stress: percentage of contralateral unfractured femur; for normalized maximum shear stress: no drug 48; for effect on fracture healing at the dose and treatment regime used: daily gavage, indomethacin 1 mg/kg, celecoxib 4 mg/kg, rofecoxib 3 mg/kg; for Shear Modulus, mean / Peak Torque (Tmax), mean: fractured femur; for Peak Torque (Tmax), mean: not normalized; for Mal-Union (Stage III), frequency / Non-Union (Stage I/II), frequency / Union (Stage IV), frequency: mechanically tested fractured femurs at 8 weeks post-fracture; for normalized shear stress: no drug 36
Procedure: as §1, §2
Animals within each treatment group were sacrificed at 4, 6, and 8 weeks post-fracture by CO2 asphyxiation. Animals with oblique, comminuted, or infected fractures were not used for mechanical testing. Both femora were removed and cleaned of all soft tissue leaving the fracture callus undisturbed and then immediately processed for mechanical testing. The samples were wrapped in saline soaked gauze to prevent dehydration between steps. Measurements of the femora were taken using digital calipers to determine femur length and external callus dimensions. The intramedullary pin was removed from the fractured femur and a 1 mm-diameter stainless steel pin (˜0.8 cm length) was inserted at the proximal and distal end perpendicular to the long axis of the bone to prevent slipping in the potting material. The intact femur was also pinned as described above. The femoral ends were potted in 1-inch hexnuts using a low melt temperature metal (Wood's metal, Alfa Aesar, Ward Mill, Mass.). Once potted, the gage length (L) of each femur was measured. Torsional testing was conducted using a servohydraulic testing machine (MTS, Eden, Praire, Minn.) with a 20 Nm reaction torque cell (Interface, Scottsdale, Ariz.). The testing was carried out to failure at a rate of 2°/sec and a data recording rate of 20 Hz. Both the fractured and intact femora were tested in internal rotation in proper anatomic orientation. The peak torque and angle at failure were calculated from the load-deformation curves. Internal fracture callus dimensions were measured after mechanical testing. From the callus dimensions, the polar moment of inertia (J) was calculated based upon a hollow ellipse model (Bell et al. 1941; Engesaeter et al. 1978). The equations used to derive torsional rigidity, shear stress, shear modulus, and J were as follows (Popov 1968): (1) Torsional Rigidity: (Tmax·L)/φ where Tmax is the peak torque value in Nmm, L is the gage length in mm, and φ is the angle at failure in radians. (2) Shear Stress: (Tmax·Rmax)/J where Rmax is the largest radial dimension of the fracture callus in mm (ao) and J is the polar moment of inertia. […]

[3] = tested on: rat closed femur fracture model; experiment: Radiographic analysis of femur fracture healing in NSAID treated rats; format: in vivo, male Sprague-Dawley rats; details: for average radiograph score (union 1 point, mal-union 0.5 points, non-union 0 points): 8-week post-fracture radiographs, 7 blinded observers, control rats 0.71
Procedure: A total of 253 male Sprague-Dawley rats (584.+−0.62 g) were fed a standard diet and kept caged separately in a constant temperature and humidity environment. All rats were 6-9 months old at the beginning of the experiment. Drugs were administered daily by gavage beginning two days prior to fracture. Animals were randomly selected for each treatment group.
as §2
Radiographs were made post-fracture to confirm the position and quality of each fracture and at sacrifice to determine the degree of healing. In addition several rats were selected randomly to produce serial radiographs (at least 2 rats per treatment group). Radiographs were made of these rats weekly under anesthesia until the experimental endpoint (8 weeks). Radiographs of mice were also made under anesthesia. All radiographs were made using a 43805N Faxitron (Hewlett-Packard, McMinnville, Oreg.) and Kodak MinR-2000 mammography film.
Radiographs were made immediately following fracture production and then every week till the end point of the experiments (8 weeks post-fracture).
In addition to the serial radiographs made for certain rats, all animals in this study were examined radiographically immediately post-fracture and when euthanized. A random, blinded sample of the 8-week post-fracture radiographs were independently examined by 7 observers and scored as a union (1 point), mal-union (0.5 points), or non-union (0 points).

[4] = tested on: rat closed femur fracture model; details: in vivo
From the text: Experimental treatment group values were compared to the no drug values using a χ^2 analysis. Significant differences are noted with an asterisk (P<0.01).
Pin slippage is dislodgement of the intramedullary stainless steel rod used to stabilize the fracture and permit the rat to weight-bear on the fractured femur. Once fracture stability was lost, the rat was euthanized since the rat could no longer weight-bear on the femur and since the callus would be re-injured and thus alter healing. […] Animals with these complications were excluded.

[5] = male rats, single drug dose; cited from earlier work
[6] = humans, depending upon drug dose; cited from earlier work
[7] = target: COX-2 (Homo sapiens, UniProt P35354); details: cited from earlier work
COX-2, sequence (P35354 18-604): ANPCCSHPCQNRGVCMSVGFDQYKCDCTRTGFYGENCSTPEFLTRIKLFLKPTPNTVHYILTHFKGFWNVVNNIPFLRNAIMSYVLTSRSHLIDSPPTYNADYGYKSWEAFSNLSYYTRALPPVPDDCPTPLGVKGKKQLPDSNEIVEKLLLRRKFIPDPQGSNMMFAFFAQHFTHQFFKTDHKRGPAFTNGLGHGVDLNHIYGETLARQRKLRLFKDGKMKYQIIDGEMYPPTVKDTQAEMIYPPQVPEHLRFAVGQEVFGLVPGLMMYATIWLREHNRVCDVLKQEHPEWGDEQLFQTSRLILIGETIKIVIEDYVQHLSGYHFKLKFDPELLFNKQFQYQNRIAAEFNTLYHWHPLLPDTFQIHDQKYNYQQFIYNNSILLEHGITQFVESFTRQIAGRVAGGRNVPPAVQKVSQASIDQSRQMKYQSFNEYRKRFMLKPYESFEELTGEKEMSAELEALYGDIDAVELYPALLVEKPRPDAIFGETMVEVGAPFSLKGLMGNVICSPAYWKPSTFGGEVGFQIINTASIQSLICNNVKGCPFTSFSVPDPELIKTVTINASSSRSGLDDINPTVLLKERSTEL

[8] = 8 weeks post-fracture, no drug 88
[9] = 8 weeks post-fracture, no drug 101
[10] = 6 weeks post-fracture, no drug 89

Question: For `CS(=O)(=O)c1ccc(C2=C(c3ccccc3)C(=O)OC2)cc1` [Rofecoxib, rofecoxib], which “histology of the healing femur fractures compared to untreated control rat” value [1] is on record?
Answer: Its value is “gross abnormalities”.

Question: What about the “cartilage in the fracture callus” value [1] of the same molecule?
Answer: Its value is “little or no cartilage was evident”.

Question: And the “healing of fractured femurs by histology” value [1]?
Answer: The value was “no further healing was evident”.

Question: And the “bone resorption at the distal ends of the fracture bones” value ([1]; rat, in vivo)?
Answer: The value was “massive bone resorption event”.

Question: What about the “normalized maximum shear stress” value ([2]; 8 weeks post-fracture) of the same molecule?
Answer: Its value is 18%.

Question: What about the normalized torsional rigidity [2, 8] of the same molecule?
Answer: Its normalized torsional rigidity is 31%.

Question: And the normalized peak torque [2, 9]?
Answer: The normalized peak torque was 50%.

Question: And the “effect on fracture healing at the dose and treatment regime used” value [2]?
Answer: The value was “stops fracture healing”.

Question: And the “Shear Modulus, mean” value ([2]; 4 wks)?
Answer: The value was 0.2 GPa.

Question: And the “Peak Torque (Tmax), mean” value ([2]; 4 wks)?
Answer: Its value is 250 Nmm.

Question: What about the “Shear Modulus, mean” value ([2]; 6 wks) of the same molecule?
Answer: Its value is 0.3 GPa.

Question: What about the “Peak Torque (Tmax), mean” value ([2]; 6 wks) of the same molecule?
Answer: Its value is 383 Nmm.

Question: And the “Shear Modulus, mean” value ([2]; 8 wks)?
Answer: The value was 0.5 GPa.

Question: And the “Peak Torque (Tmax), mean” value ([2]; 8 wks)?
Answer: The value was 338 Nmm.

Question: What about the “Mal-Union (Stage III), frequency” value [2] of the same molecule?
Answer: Its value is 1.

Question: What about the “Non-Union (Stage I/II), frequency” value [2] of the same molecule?
Answer: Its value is 4.

Question: What about the “Union (Stage IV), frequency” value [2] of the same molecule?
Answer: The value was 0.

Question: What about the “mechanical properties of the fractured femurs compared to no drug rats” value ([2]; rofecoxib: 8 weeks post-fracture, all values measured or derived) of the same molecule?
Answer: The value was “significantly less”.

Question: What about the “formation of an X-ray dense hard callus” value ([3]; 2 and 4 week post-fracture radiographs) of the same molecule?
Answer: Its value is “did not prevent”.

Question: What about the “average radiograph score (union 1 point, mal-union 0.5 points, non-union 0 points)” value [3] of the same molecule?
Answer: Its value is 0.32.

Question: What about the “original fracture on radiograph” value ([3]; after 8 weeks) of the same molecule?
Answer: The value was “still plainly evident”.

Question: What about the “infection rate as compared to the no drug rats” value [4] of the same molecule?
Answer: The value was “statistically significant higher”.

Question: And the “pin slippage, rats having to be euthanized prior to the endpoint” value ([4]; male, Sprague-Dawley)?
Answer: The value was no more than 30%.

Question: And the estimated plasma half-life [5]?
Answer: Its estimated plasma half-life is roughly 5 h.

Question: And the plasma half-life [6]?
Answer: The plasma half-life was 10 to 17 h.

Question: What about the “selectivity for COX-2 relative to COX-1” value [7] of the same molecule?
Answer: The value was roughly 35 fold.

Question: Which results are given for `COc1ccc2c(c1)c(CC(=O)O)c(C)n2C(=O)c1ccc(Cl)cc1` [Indomethacin, indomethacin]?
Answer: histology of the healing femur fractures compared to untreated control rat [1]: gross abnormalities; cartilage in the fracture callus [1]: presence of cartilage; healing of fractured femurs by histology [1]: appeared to be healing; normalized shear stress ([2]; 6 weeks post-fracture): 15%; normalized peak torque ([2]; 6 weeks post-fracture, no drug 77): 46%; normalized torsional rigidity [2, 10]: 34%; normalized maximum shear stress ([2]; 8 weeks post-fracture): not significantly different; normalized torsional rigidity [2, 8]: not significantly different; normalized peak torque [2, 9]: not significantly different; effect on fracture healing at the dose and treatment regime used [2]: delays, but does not prevent fracture healing; Shear Modulus, mean ([2]; 4 wks): 0.3 GPa; Peak Torque (Tmax), mean ([2]; 4 wks): 417 Nmm; Shear Modulus, mean ([2]; 6 wks): 0.4 GPa; Peak Torque (Tmax), mean ([2]; 6 wks): 357 Nmm; Shear Modulus, mean ([2]; 8 wks): 1.8 GPa; Peak Torque (Tmax), mean ([2]; 8 wks): 469 Nmm; Mal-Union (Stage III), frequency [2]: 1; Non-Union (Stage I/II), frequency [2]: 1; Union (Stage IV), frequency [2]: 6; average radiograph score (union 1 point, mal-union 0.5 points, non-union 0 points) [3]: 0.54; bridging of the fracture gap (time post fracture) ([3]; radiography, untreated rats approximately 4-5 weeks): 5-6 weeks

Question: For `Cc1ccc(-c2cc(C(F)(F)F)nn2-c2ccc(S(N)(=O)=O)cc2)cc1` [Celecoxib, celecoxib], which normalized shear stress ([2]; 6 weeks post-fracture) is on record?
Answer: The normalized shear stress was 22%.

Question: What about the normalized torsional rigidity [2, 10] of the same molecule?
Answer: The normalized torsional rigidity was 50%.

Question: What about the “Shear Modulus, mean” value ([2]; 4 wks) of the same molecule?
Answer: The value was 0.3 GPa.

Question: And the “Peak Torque (Tmax), mean” value ([2]; 4 wks)?
Answer: Its value is 302 Nmm.

Question: What about the “Shear Modulus, mean” value ([2]; 6 wks) of the same molecule?
Answer: The value was 0.9 GPa.

Question: What about the “Peak Torque (Tmax), mean” value ([2]; 6 wks) of the same molecule?
Answer: Its value is 567 Nmm.

Question: And the “Shear Modulus, mean” value ([2]; 8 wks)?
Answer: Its value is 1.7 GPa.

Question: And the “Peak Torque (Tmax), mean” value ([2]; 8 wks)?
Answer: The value was 620 Nmm.

Question: What about the “Mal-Union (Stage III), frequency” value [2] of the same molecule?
Answer: Its value is 3.

Question: What about the “Non-Union (Stage I/II), frequency” value [2] of the same molecule?
Answer: Its value is 3.

Question: And the “Union (Stage IV), frequency” value [2]?
Answer: The value was 0.

Question: What about the “rats tested whose fractured femurs healed as mal-unions rather than non-unions” value ([2]; rat, in vivo) of the same molecule?
Answer: The value was “approximately 50%”.

Question: What about the “average radiograph score (union 1 point, mal-union 0.5 points, non-union 0 points)” value [3] of the same molecule?
Answer: The value was 0.49.

Question: And the estimated plasma half-life [5]?
Answer: Its estimated plasma half-life is “approximately 4 hours”.
